We go through 14 molecules from patent US12398132B2, “Derivatives of 4-(imidazo[1,2-a]pyridin-3-yl)-n-(pyridinyl)pyrimidin-2-amine as therapeutic agents” (AUCENTRA THERAPEUTICS PTY LTD, priority 2019, dated 2025).

One assay deals with CDK4/D1 (Homo sapiens, UniProt P11802). As to the kind of experiment: ADP Glo kinase assay, CDK4/D1. The class given is biochemical. As to conditions: CDK4D1; for remaining activity at 1 µM: compound at 1 μM (values marked *), read-out: residual enzymatic activity (%) at 1 μM*. (ADP-Glo first removes unused ATP, then detects ADP through luciferase.)
The target of the next assay is CDK6/D3 (Homo sapiens, UniProt Q00534). As to the kind of experiment: ADP Glo kinase assay, CDK6/D3. The class given is biochemical. As to conditions: CDK6D3; for remaining activity at 1 µM: compound at 1 μM (values marked *), read-out: residual enzymatic activity (%) at 1 μM*.
For the next assay, the target named is CDK9/CyclinT1 (Homo sapiens, UniProt P50750). As to the kind of experiment: ADP Glo kinase assay, CDK9/CyclinT1. It is filed as biochemical. As to conditions: CDK9T1; for remaining activity at 1 µM: compound at 1 μM (values marked *), read-out: residual enzymatic activity (%) at 1 μM*.
The test system of another assay is MV-4-11. The assay is described as follows: Proliferation assay (resazurin/MTT), MV-4-11. As to conditions: Homo sapiens, MV4-11, read-out: 72 h Growth inhibition GI50, MV-4-11 cells. It is filed as cell-based. (Resazurin is reduced to fluorescent resorufin, in cell work by metabolically active cells.)
The next assay concerns U937. As to the kind of experiment: Proliferation assay (resazurin/MTT), U937. It is filed as cell-based. As to conditions: Homo sapiens, U-937, read-out: 72 h Growth inhibition GI50, U937 cells.
In a further assay the target is CDK1B (Homo sapiens, UniProt P06493).
The target of a further assay is CDK2E1 (Homo sapiens, UniProt P24941). The note with it: 1 µM.
The target in another assay is CDK7HMAT1 (Homo sapiens, UniProt P50613).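 Further: kinase activity measured with an ADP-Glo luminescent kinase assay.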
Where [1] appears, read: compound at 10 μM, read-out: residual enzymatic activity (%) at 10 μM.

Like-named read-outs stand apart in the source and are kept apart here.

Chain of CDK1B (P06493 whole entry): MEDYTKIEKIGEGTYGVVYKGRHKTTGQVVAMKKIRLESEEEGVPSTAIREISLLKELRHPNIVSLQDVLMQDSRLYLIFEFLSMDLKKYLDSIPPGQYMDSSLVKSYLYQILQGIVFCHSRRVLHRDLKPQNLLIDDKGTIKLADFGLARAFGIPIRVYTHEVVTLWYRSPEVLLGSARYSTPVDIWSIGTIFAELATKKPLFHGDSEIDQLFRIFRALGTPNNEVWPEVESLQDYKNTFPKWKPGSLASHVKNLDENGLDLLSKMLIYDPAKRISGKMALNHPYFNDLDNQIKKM
Chain of CDK1B (P14635 whole entry partner): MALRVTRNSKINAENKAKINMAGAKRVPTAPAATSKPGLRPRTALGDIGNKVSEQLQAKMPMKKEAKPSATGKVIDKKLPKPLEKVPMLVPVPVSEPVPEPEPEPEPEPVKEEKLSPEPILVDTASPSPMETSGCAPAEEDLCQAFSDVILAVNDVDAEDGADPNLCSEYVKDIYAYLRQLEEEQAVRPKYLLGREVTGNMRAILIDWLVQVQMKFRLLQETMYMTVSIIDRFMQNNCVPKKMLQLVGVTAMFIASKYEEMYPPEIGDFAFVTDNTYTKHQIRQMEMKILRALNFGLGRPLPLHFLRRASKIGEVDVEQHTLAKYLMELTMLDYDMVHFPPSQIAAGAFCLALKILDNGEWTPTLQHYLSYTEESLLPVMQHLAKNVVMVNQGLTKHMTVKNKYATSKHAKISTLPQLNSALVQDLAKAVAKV
Chain of CDK6/D3 (Q00534 whole entry, species assumed): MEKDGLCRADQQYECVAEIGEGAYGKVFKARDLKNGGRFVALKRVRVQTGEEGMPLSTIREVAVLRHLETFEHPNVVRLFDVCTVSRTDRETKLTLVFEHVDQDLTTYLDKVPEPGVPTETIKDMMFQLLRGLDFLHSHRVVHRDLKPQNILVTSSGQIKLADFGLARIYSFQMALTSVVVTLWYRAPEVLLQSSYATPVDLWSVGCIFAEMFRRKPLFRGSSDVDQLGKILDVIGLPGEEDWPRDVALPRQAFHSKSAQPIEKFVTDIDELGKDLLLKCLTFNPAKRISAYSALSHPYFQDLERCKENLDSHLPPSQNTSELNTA
Chain of CDK6/D3 (P30281 whole entry partner, species assumed): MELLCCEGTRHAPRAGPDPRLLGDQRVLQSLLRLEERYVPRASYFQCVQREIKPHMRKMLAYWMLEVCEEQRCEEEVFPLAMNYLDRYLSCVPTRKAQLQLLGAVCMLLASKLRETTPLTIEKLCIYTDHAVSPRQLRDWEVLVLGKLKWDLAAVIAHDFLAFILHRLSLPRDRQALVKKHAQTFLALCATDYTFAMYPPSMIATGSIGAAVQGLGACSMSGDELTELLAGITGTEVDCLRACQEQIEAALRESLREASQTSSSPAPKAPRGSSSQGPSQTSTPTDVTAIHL
Chain of CDK7HMAT1 (P50613 whole entry): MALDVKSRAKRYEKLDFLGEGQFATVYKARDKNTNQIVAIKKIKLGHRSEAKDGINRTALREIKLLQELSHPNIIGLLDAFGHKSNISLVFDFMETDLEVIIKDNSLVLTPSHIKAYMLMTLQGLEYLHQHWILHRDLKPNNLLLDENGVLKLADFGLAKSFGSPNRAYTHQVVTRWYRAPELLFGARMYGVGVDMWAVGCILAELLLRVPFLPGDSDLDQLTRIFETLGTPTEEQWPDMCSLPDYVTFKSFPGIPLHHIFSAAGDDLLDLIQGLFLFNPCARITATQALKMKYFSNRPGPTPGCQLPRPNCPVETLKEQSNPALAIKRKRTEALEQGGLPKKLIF
Chain of CDK7HMAT1 (P51946 whole entry partner): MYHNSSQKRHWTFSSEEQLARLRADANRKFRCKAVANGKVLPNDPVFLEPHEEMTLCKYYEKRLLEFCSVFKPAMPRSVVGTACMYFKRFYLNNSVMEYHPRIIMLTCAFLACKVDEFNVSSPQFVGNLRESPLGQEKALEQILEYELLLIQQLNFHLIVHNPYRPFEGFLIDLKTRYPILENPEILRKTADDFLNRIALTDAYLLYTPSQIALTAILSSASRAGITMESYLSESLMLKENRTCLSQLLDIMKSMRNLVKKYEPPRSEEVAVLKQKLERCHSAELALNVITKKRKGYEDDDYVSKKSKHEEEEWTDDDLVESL
Chain of CDK7HMAT1 (P51948 whole entry partner): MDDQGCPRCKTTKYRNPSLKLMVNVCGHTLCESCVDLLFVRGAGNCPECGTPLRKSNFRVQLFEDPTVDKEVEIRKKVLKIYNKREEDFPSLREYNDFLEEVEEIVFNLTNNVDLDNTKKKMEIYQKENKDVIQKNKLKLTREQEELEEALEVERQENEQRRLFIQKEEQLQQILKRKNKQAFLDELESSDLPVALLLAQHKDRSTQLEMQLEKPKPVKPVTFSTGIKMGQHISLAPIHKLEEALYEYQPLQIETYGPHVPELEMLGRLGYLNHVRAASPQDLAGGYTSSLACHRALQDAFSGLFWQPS
Chain of CDK4/D1 (P11802 whole entry, species assumed): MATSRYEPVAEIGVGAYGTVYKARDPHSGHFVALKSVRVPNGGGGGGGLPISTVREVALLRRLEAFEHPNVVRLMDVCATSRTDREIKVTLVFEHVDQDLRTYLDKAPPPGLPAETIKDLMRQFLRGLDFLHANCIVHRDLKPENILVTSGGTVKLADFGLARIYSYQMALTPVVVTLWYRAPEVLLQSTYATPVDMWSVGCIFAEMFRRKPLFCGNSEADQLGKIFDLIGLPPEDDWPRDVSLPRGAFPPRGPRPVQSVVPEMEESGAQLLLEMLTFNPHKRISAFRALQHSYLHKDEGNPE
Chain of CDK4/D1 (P24385 whole entry partner, species assumed): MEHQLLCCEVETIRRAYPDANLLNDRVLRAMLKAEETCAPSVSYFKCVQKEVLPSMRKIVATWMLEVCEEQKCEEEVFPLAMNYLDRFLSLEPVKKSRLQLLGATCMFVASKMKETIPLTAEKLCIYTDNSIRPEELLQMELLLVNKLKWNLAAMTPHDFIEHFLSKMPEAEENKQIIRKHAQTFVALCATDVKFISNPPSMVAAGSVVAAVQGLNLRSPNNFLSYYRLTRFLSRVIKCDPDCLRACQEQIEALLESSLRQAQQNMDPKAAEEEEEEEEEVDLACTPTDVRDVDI
Chain of CDK9/CyclinT1 (P50750 whole entry, species assumed): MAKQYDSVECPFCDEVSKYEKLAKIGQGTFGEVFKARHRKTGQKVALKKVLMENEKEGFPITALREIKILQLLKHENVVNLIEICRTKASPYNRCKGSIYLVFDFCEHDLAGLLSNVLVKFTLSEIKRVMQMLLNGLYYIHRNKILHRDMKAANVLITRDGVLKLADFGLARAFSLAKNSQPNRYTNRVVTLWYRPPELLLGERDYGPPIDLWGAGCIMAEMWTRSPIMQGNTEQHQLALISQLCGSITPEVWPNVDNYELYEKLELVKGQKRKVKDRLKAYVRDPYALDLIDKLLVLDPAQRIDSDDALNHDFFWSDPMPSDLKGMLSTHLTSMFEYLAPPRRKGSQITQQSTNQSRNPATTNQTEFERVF
Chain of CDK9/CyclinT1 (O60563 whole entry partner, species assumed): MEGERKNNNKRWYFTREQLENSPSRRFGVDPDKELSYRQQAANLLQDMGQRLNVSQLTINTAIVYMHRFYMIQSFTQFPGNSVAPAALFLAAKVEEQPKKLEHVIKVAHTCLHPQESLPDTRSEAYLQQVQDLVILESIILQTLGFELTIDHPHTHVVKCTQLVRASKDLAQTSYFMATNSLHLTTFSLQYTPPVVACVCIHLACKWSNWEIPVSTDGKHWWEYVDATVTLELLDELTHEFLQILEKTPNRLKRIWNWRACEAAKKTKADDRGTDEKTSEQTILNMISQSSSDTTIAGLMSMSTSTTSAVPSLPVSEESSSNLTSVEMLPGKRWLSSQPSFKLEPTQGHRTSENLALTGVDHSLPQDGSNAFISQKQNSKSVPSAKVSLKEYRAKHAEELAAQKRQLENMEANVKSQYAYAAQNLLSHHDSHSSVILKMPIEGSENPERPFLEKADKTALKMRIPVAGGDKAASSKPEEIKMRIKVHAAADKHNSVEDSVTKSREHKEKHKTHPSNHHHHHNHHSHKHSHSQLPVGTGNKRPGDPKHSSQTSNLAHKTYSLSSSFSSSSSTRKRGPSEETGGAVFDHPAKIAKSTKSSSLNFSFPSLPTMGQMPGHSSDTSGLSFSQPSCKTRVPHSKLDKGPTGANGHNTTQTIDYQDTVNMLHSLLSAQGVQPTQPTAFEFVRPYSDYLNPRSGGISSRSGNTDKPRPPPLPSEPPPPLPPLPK
Experimental for CDK4/D1: (§1) Inhibition of FLT3(WT), FLT3(ITD) and FLT3(D835Y) and CDKs were determined using ADP Glo Kinase assays (Promega Corporation, Madison, WI, USA). […] Similarly, kinase reaction for CDK4/D1 and CDK6/D3 was performed with reaction buffer (40 nM Tris base pH 7.5, 20 mM MgCl2, 0.4 mM DTT), 0.1 mg/ml BSA and RB-CTF substrate (retinoblastoma protein1 C-terminal fraction). For CDK9/CyclinT1, the kinase reaction was performed with the standard assay buffer and Kinase Dilution Buffer and RBER-IRStide substrate. Half-maximal inhibition (IC50) values were calculated using a 4-parameter logistic non-linear regression model with Graphpad prism (Version 6.0). Apparent inhibition constants (Ki) values were calculated from Km (ATP) and IC50 values for the respective kinases.
Experimental for CDK7HMAT1: Inhibition of FLT3(WT), FLT3(ITD) and FLT3(D835Y) and CDKs were determined using ADP Glo Kinase assays (Promega Corporation, Madison, WI, USA). […] The kinase reactions are run for an optimised time period (FLT3-WT: 120 min, FLT3-ITD: 80 min, FLT3-D835Y: 100 min) at room temperature and then the reaction was stopped by adding 5 μL of ADP Glo reagent. […] Positive and negative controls were performed in 0.5% DMSO in the presence and absence of each FLT3 kinase, respectively. […] Half-maximal inhibition (IC50) values were calculated using a 4-parameter logistic non-linear regression model with Graphpad prism (Version 6.0). Apparent inhibition constants (Ki) values were calculated from Km (ATP) and IC50 values for the respective kinases.
Experimental for CDK9/CyclinT1: as §1

By GI50 is commonly meant the concentration at which growth is held to half of that of the control. As to `CC(=O)N1CCN(c2ccc(Nc3nccc(-c4cnc5ccc(-c6cc[nH]c6)cn45)n3)nc2)CC1` [Cmpd 23, 1-(4-(6-((4-(6-(1H-Pyrrol-3-yl)imidazo[1,2-a]pyridin-3-yl)pyrimidin-2-yl)amino)pyridin-3-yl)piperazin-1-yl)ethan-1-one], the remaining activity at 10 µM at CDK4/D1 (setting [1]) is 50%; on CDK6/D3 (setting [1]), 71%. The Ki on CDK9/CyclinT1 (apparent Ki calculated from Km (ATP) and IC50, read-out: CDK inhibition Ki) was 421 nM. Besides, the concentration for 50% growth inhibition (GI50) was determined as 1 nM in the assay on MV-4-11 and 323 nM with U937. For the same molecule, the figures for the activity on CDK1B (10 µM), at CDK2E1 and on CDK7HMAT1 (10 µM) were 59%, 76% and 55%, respectively.

As for `CC(=O)N1CCN(c2ccc(Nc3nccc(-c4cnc5ccc(-c6ccsc6)cn45)n3)nc2)CC1` [Cmpd 26, 1-(4-(6-((4-(6-(Thiophen-3-yl)imidazo[1,2-a]pyridin-3-yl)pyrimidin-2-yl)amino)pyridin-3-yl)piperazin-1-yl)ethan-1-one], the remaining activity at 1 µM came out at 73% on CDK4/D1, 73% at CDK6/D3 and 36% at CDK9/CyclinT1. The GI50 came to 4 nM in the assay with MV-4-11 and 538 nM in the assay on U937. For the same molecule, the figures for the activity at CDK1B (1 µM), at CDK2E1 and on CDK7HMAT1 (1 µM) were 95%, 73% and 83%, respectively.

As to `CC(=O)N1CCN(c2ccc(Nc3nccc(-c4cnc5ccc(-c6cnn(C)c6)cn45)n3)nc2)CC1` [Cmpd 27, 1-(4-(6-((4-(6-(1-Methyl-1H-pyrazol-4-yl)imidazo[1,2-a]pyridin-3-yl)pyrimidin-2-yl)amino)pyridin-3-yl)piperazin-1-yl)ethan-1-one], the remaining activity at 1 µM at CDK4/D1 turned out to be 70%; on CDK6/D3, 70%; on CDK9/CyclinT1, 31%. Moreover, the GI50 in the assay on MV-4-11 was determined as 2 nM; with U937, 883 nM. Besides, the activity at CDK1B (1 µM) amounted to 88%; on CDK2E1, 89%; on CDK7HMAT1 (1 µM), 93%.

As to `CC(=O)N1CCN(c2ccc(Nc3nccc(-c4cnc5ccc(Nc6ccccc6)cn45)n3)nc2)CC1` [Cmpd 28, 1-(4-(6-((4-(6-(Phenylamino)imidazo[1,2-a]pyridin-3-yl)pyrimidin-2-yl)amino)pyridin-3-yl)piperazin-1-yl)ethan-1-one], the values for the remaining activity at 1 µM at CDK4/D1, on CDK6/D3 and on CDK9/CyclinT1 were 77%, 80% and 61%, respectively. For the same molecule, the GI50 in the assay on MV-4-11 is 6 nM; in the assay on U937, 1490 nM. The activity at CDK1B (1 µM) came to 98%; at CDK2E1 it was 86%; on CDK7HMAT1 (1 µM), 91%.

Turning to `CC(=O)N1CCN(c2ccc(Nc3ncc(F)c(-c4cnc5ccccn45)n3)nc2)CC1` [Cmpd 29, 1-(4-(6-((5-Fluoro-4-(imidazo[1,2-a]pyridin-3-yl)pyrimidin-2-yl)amino)pyridin-3-yl)piperazin-1-yl)ethan-1-one], the figures for the remaining activity at 1 µM at CDK4/D1, on CDK6/D3 and at CDK9/CyclinT1 were 59%, 59% and 36%, respectively. Besides, the GI50 with MV-4-11 was found to be 43 nM; with U937 it was 393 nM. Besides, the activity on CDK1B (1 µM) stood at 100%; at CDK2E1, 47%; on CDK7HMAT1 (1 µM), 82%.

In the case of `CC(=O)N1CCN(c2ccc(Nc3ncc(F)c(-c4cnc5ccc(F)cn45)n3)nc2)CC1` [Cmpd 30, 1-(4-(6-((5-Fluoro-4-(6-fluoroimidazo[1,2-a]pyridin-3-yl)pyrimidin-2-yl)amino)pyridin-3-yl)piperazin-1-yl)ethan-1-one], the remaining activity at 1 µM is 55% at CDK4/D1, 58% on CDK6/D3 and 33% at CDK9/CyclinT1. In addition, the GI50 was 72 nM with MV-4-11 and 4040 nM in the assay with U937. Further, the activity was 96% on CDK1B (1 µM), 51% on CDK2E1 and 77% on CDK7HMAT1 (1 µM).

For `CC(=O)N1CCN(c2ccc(Nc3ncc(F)c(-c4cnc5ccc(C(F)(F)F)cn45)n3)nc2)CC1` [Cmpd 32, 1-(4-(6-((5-Fluoro-4-(6-(trifluoromethyl)imidazo[1,2-a]pyridin-3-yl)pyrimidin-2-yl)amino)pyridin-3-yl)piperazin-1-yl)ethan-1-one], the remaining activity at 1 µM on CDK4/D1 was determined as 67%; on CDK6/D3, 70%; at CDK9/CyclinT1, 82%. Also, the results for the GI50 in the assay with MV-4-11 and with U937 were 24 nM and 821 nM, respectively. Also, the activity at CDK1B (1 µM) stood at 93%; on CDK2E1 it was 65%; on CDK7HMAT1 (1 µM), 84%.

Consider `CC(=O)N1CCN(c2ccc(Nc3nccc(-c4cnc5ccc(-c6coc7ccccc67)cn45)n3)nc2)CC1` [Cmpd 33, 1-(4-(6-((4-(6-(Benzofuran-3-yl)imidazo[1,2-a]pyridin-3-yl)pyrimidin-2-yl)amino)pyridin-3-yl)piperazin-1-yl)ethan-1-one], for which the remaining activity at 1 µM on CDK4/D1 amounted to 60%; at CDK6/D3, 79%; on CDK9/CyclinT1, 72%. The GI50 in the assay on MV-4-11 worked out at 3 nM; in the assay with U937, 1860 nM. The activity came out at 98% on CDK1B (1 µM), 84% at CDK2E1 and 88% at CDK7HMAT1 (1 µM).

Consider `CC(=O)N1CCN(c2ccc(Nc3nccc(-c4cnc5ccc(-c6cn(S(=O)(=O)c7ccccc7)c7ccccc67)cn45)n3)nc2)CC1` [Cmpd 34, 1-(4-(6-((4-(6-(1-(Phenylsulfonyl)-1H-indol-3-yl)imidazo[1,2-a]pyridin-3-yl)pyrimidin-2-yl)amino)pyridin-3-yl)piperazin-1-yl)ethan-1-one], for which the remaining activity at 1 µM at CDK4/D1 is 55%; at CDK6/D3 it was 77%; on CDK9/CyclinT1, 100%. In addition, the GI50 was determined as 66 nM in the assay with MV-4-11 and 2490 nM with U937. In addition, the figures for the activity at CDK1B (1 µM), on CDK2E1 and on CDK7HMAT1 (1 µM) were 99%, 75% and 80%, respectively.

For the molecule `CC(=O)N1CCN(c2ccc(Nc3nccc(-c4cnc5ccc(-c6csc7ccccc67)cn45)n3)nc2)CC1` [Cmpd 35, 1-(4-(6-((4-(6-(Benzo[b]thiophen-3-yl)imidazo[1,2-a]pyridin-3-yl)pyrimidin-2-yl)amino)pyridin-3-yl)piperazin-1-yl)ethan-1-one], the remaining activity at 1 µM on CDK4/D1 is 77%; on CDK6/D3 it was 76%; at CDK9/CyclinT1, 91%. The GI50 in the assay with MV-4-11 was 7 nM; in the assay on U937, greater than 10000 nM. Further, the results for the activity on CDK1B (1 µM), at CDK2E1 and at CDK7HMAT1 (1 µM) were 81%, 100% and 81%, respectively.

For `CC(=O)N1CCN(c2ccc(Nc3nccc(-c4cnc5ccc(-c6cccc7[nH]ccc67)cn45)n3)nc2)CC1` [Cmpd 36, 1-(4-(6-((4-(6-(1H-Indol-4-yl)imidazo[1,2-a]pyridin-3-yl)pyrimidin-2-yl)amino)pyridin-3-yl)piperazin-1-yl)ethan-1-one], the values for the remaining activity at 1 µM at CDK4/D1, at CDK6/D3 and at CDK9/CyclinT1 were 58%, 76% and 99%, respectively. Besides, the figures for the GI50 in the assay with MV-4-11 and in the assay on U937 were 12 nM and 1360 nM, respectively. Also, the activity at CDK1B (1 µM) came out at 96%; at CDK2E1 it was 89%; at CDK7HMAT1 (1 µM), 96%.

On to `CC(=O)N1CCN(c2ccc(Nc3nccc(-c4cnc5ccc(-c6cc7ccccc7[nH]6)cn45)n3)nc2)CC1` [Cmpd 37, 1-(4-(6-((4-(6-(1H-Indol-2-yl)imidazo[1,2-a]pyridin-3-yl)pyrimidin-2-yl)amino)pyridin-3-yl)piperazin-1-yl)ethan-1-one], for which the remaining activity at 1 µM stood at 78% at CDK4/D1, 78% on CDK6/D3 and 39% on CDK9/CyclinT1. Further, the figures for the GI50 with MV-4-11 and in the assay on U937 were 10 nM and 2420 nM, respectively. Also, the activity on CDK1B (1 µM) came to 96%; on CDK2E1, 91%; at CDK7HMAT1 (1 µM), 103%.

Turning to `CC(=O)N1CCN(c2ccc(Nc3nccc(-c4cnc5ccc(-c6cn(S(=O)(=O)c7ccccc7)c7ncccc67)cn45)n3)nc2)CC1` [Cmpd 38, 1-(4-(6-((4-(6-(1-(Phenylsulfonyl)-1H-pyrrolo[2,3-b]pyridin-3-yl)imidazo[1,2-a]pyridin-3-yl)pyrimidin-2-yl)amino)pyridin-3-yl)piperazin-1-yl)ethan-1-one], the remaining activity at 1 µM was 70% on CDK4/D1, 70% on CDK6/D3 and 85% at CDK9/CyclinT1. The GI50 was determined as 44 nM in the assay with MV-4-11 and 2910 nM in the assay on U937. In addition, the activity on CDK1B (1 µM) was 99%; at CDK2E1, 82%; at CDK7HMAT1 (1 µM) it was 102%.

`CC(=O)N1CCN(c2ccc(Nc3nccc(-c4cnc5ccc(-c6cn(C)c7ccccc67)cn45)n3)nc2)CC1` [Cmpd 40, 1-(4-(6-((4-(6-(1-Methyl-1H-indol-3-yl)imidazo[1,2-a]pyridin-3-yl)pyrimidin-2-yl)amino)pyridin-3-yl)piperazin-1-yl)ethan-1-one]: the remaining activity at 1 µM on CDK4/D1 was determined as 55%; on CDK6/D3, 78%; at CDK9/CyclinT1, 82%. In addition, the results for the GI50 in the assay with MV-4-11 and in the assay on U937 were 1 nM and 1340 nM, respectively. Further, the results for the activity at CDK1B (1 µM), on CDK2E1 and at CDK7HMAT1 (1 µM) were 97%, 93% and 104%, respectively.
